Assay results as given in PubChem BioAssay AID328 (DTP/NCI, 2004).
Values joined by “and” are separate entries in the source; they are usually repeats but may differ in a detail not shown here. Identical values can stand only once. Toxic doses and inconclusive results are not listed.

System: BDF1 mice, P388 leukemia ip, median survival T/C
Experiment: NCI In Vivo Anticancer Drug Screen. Data for tumor model P388 Leukemia (intraperitoneal) in B6D2F1 (BDF1) mice
Details: endpoint: median survival time, higher = longer survival
How it was run: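 Mice carrying the transplantable tumour receive compound or vehicle. Survival is followed in each arm, and the treated measure is divided by the vehicle measure.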

[1] = dose: 50.0 mg/kg/injection, schedule: Q01DX009 (ip), vehicle: saline
[2] = dose: 50.0 mg/kg/injection, schedule: Q01DX009 (ip), vehicle: saline with Tween-80

`CC1(C)SC2C(NC(=O)C(C(=O)O)c3ccccc3)C(=O)N2C1C(=O)O` (configuration not stated) was tested, and the T/C (dose: 50.0 mg/kg/injection, schedule: Q01DX010 (ip), vehicle: saline) was 122 % of control, the T/C (dose: 100.0 mg/kg/injection, schedule: Q01DX010 (ip), vehicle: saline) was 113 % of control and the T/C (dose: 200.0 mg/kg/injection, schedule: Q01DX010 (ip), vehicle: saline) was 113 % of control. The T/C (dose: 400.0 mg/kg/injection, schedule: Q01DX010 (ip), vehicle: saline) was 118 % of control.

For `C[C@]12CCC(=O)C=C1CC[C@@H]1[C@@H]2[C@@H](O)C[C@@]2(C)[C@H]1CC[C@]2(O)C(=O)CO`, the T/C (dose: 6.25 mg/kg/injection, schedule: Q01DX010 (sc), vehicle: steriod suspending solution) was 100 % of control, the T/C (dose: 12.5 mg/kg/injection, schedule: Q01DX010 (sc), vehicle: steriod suspending solution) was 100 % of control and the T/C (dose: 25.0 mg/kg/injection, schedule: Q01DX010 (sc), vehicle: steriod suspending solution) was 110 % of control. The T/C (dose: 50.0 mg/kg/injection, schedule: Q01DX010 (sc), vehicle: steriod suspending solution) was 120 % of control, the T/C (dose: 100.0 mg/kg/injection, schedule: Q01DX010 (sc), vehicle: steriod suspending solution) was 115 % of control and 120 % of control and the T/C (dose: 200.0 mg/kg/injection, schedule: Q01DX010 (sc), vehicle: steriod suspending solution) was 110 % of control.

For `COc1cccc(C(=O)O)c1OS(=O)(=O)c1ccc(C)cc1`, the T/C (dose: 25.0 mg/kg/injection, schedule: Q01DX009 (ip), vehicle: other) was 108 % of control, the T/C (dose: 50.0 mg/kg/injection, schedule: Q01DX009 (ip), vehicle: other) was 100 % of control and the T/C (dose: 100.0 mg/kg/injection, schedule: Q01DX009 (ip), vehicle: other) was 100 % of control. For the same compound, the T/C (dose: 200.0 mg/kg/injection, schedule: Q01DX009 (ip), vehicle: other) was 101 % of control and the T/C (dose: 400.0 mg/kg/injection, schedule: Q01DX009 (ip), vehicle: other) was 103 % of control.

In the case of `Cc1cc(NC(=O)NCc2ccc(N3C(N)=NC(N)=NC3(C)C)cc2)ccc1S(=O)(=O)F`, the T/C (dose: 2.1 mg/kg/injection, schedule: Q01DX009 (ip), vehicle: saline with Tween-80) is reported as 108 % of control, the T/C (dose: 3.1 mg/kg/injection, schedule: Q01DX009 (ip), vehicle: saline with Tween-80) is reported as 113 % of control and the T/C (dose: 4.8 mg/kg/injection, schedule: Q01DX009 (ip), vehicle: saline) is reported as 123 % of control. The T/C (dose: 25.0 mg/kg/injection, schedule: Q01DX009 (ip), vehicle: saline) was 172 % of control, the T/C (dose: 45.0 mg/kg/injection, schedule: Q04DX003 (ip), vehicle: saline with Tween-80) was 150 % of control and the T/C [1] was 209 % of control. The T/C (dose: 100.0 mg/kg/injection, schedule: Q04DX003 (ip), vehicle: alcohol) was 115 % of control, the T/C (dose: 264.0 mg/kg/injection, schedule: Q04DX003 (ip), vehicle: saline) was 195 % of control and the T/C (dose: 400.0 mg/kg/injection, schedule: Q04DX003 (ip), vehicle: alcohol) was 155 % of control.

For `Clc1cc(Cl)c(CBr)cc1CBr`, the T/C (dose: 3.13 mg/kg/injection, schedule: Q01DX009 (ip), vehicle: saline with Tween-80) was 109 % of control, the T/C (dose: 6.25 mg/kg/injection, schedule: Q01DX009 (ip), vehicle: saline with Tween-80) was 100 % of control and the T/C (dose: 12.5 mg/kg/injection, schedule: Q01DX009 (ip), vehicle: saline with Tween-80) was 104 % of control.

With `COc1cc(OC)c(OC)cc1/C=C/c1cc[n+](C)c2ccccc12` the T/C (dose: 6.25 mg/kg/injection, schedule: Q01DX009 (ip), vehicle: saline) was 111 % of control, the T/C (dose: 12.5 mg/kg/injection, schedule: Q01DX009 (ip), vehicle: saline) was 119 % of control and the T/C (dose: 16.0 mg/kg/injection, schedule: Q01DX009 (ip), vehicle: saline) was 111 % of control. For the same compound, the T/C (dose: 35.0 mg/kg/injection, schedule: Q01DX009 (ip), vehicle: saline) was 119 % of control.

For `CCOC(=O)C1CSC2(CCCCC2)N1` (configuration not stated), the T/C [1] was 92 % of control, the T/C (dose: 100.0 mg/kg/injection, schedule: Q01DX009 (ip), vehicle: saline) was 94 % of control and the T/C (dose: 200.0 mg/kg/injection, schedule: Q01DX009 (ip), vehicle: saline) was 109 % of control.

`CC(C)(C)OOC(=O)c1ccccc1O` was tested, and the T/C (dose: 12.5 mg/kg/injection, schedule: Q04DX003 (ip), vehicle: other) was 102 % of control, the T/C (dose: 25.0 mg/kg/injection, schedule: Q04DX003 (ip), vehicle: other) was 101 % of control and the T/C [2] was 122 % of control. For the same compound, the T/C (dose: 50.0 mg/kg/injection, schedule: Q04DX003 (ip), vehicle: other) was 101 % of control and the T/C (dose: 100.0 mg/kg/injection, schedule: Q04DX003 (ip), vehicle: other) was 118 % of control.

`CCCCN(CCCC)CCC(O)c1cc2ccc(C(F)(F)F)cc2c2cc(C(F)(F)F)ccc12` (configuration not stated) was tested, and the T/C [2] was 94 % of control, the T/C (dose: 100.0 mg/kg/injection, schedule: Q01DX009 (ip), vehicle: saline with Tween-80) was 90 % of control and the T/C (dose: 200.0 mg/kg/injection, schedule: Q01DX009 (ip), vehicle: saline with Tween-80) was 110 % of control.
